Assay results taken from patent US6887873B2, “Triazine derivatives and their application as antitelomerase agents” (Aventis Pharma S.A., priority 2001, dated 2005).

Test system: human telomerease (HL60 cell extract)
Assay: Antitelomerease activity: extension of oligonucleotide TS followed by PCR amplification, with HL60 extract
Assay type: biochemical
Details: read-out: TRAP IC50
Summary of the method: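 HL60 CHAPS-lysate extract extends TS primer (15 min, 30 °C) with compound at 10, 1, 0.1 and 0.01 µM, followed by 30-cycle PCR with TS and CXext. Products resolved on 12% acrylamide and quantified; % inhibition versus enzyme control and blank, IC50 read from semilog plot.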

SMILES	IC50 [µM]
Cc1cc(N(C)C)c2cc(Nc3nc(NCCCN(C)C)nc(Nc4ccc5nc(C)cc(N(C)C)c5c4)n3)ccc2n1 [Example 1, 2,4-bis(4-dimethylamino-2-methylquinolin-6-yl)amino-6-(3-dimethylaminopropyl)amino-[1,3,5]triazine]	0.55
Cc1cc(N)c2cc(Nc3nc(Nc4ccc5nc(C)cc(N)c5c4)nc(Nc4ccc5nc(C)cc(N)c5c4)n3)ccc2n1 [Example 2, 2,4,6-tris(4-amino-2-methylquinolin-6-yl)amino-[1,3,5]triazine]	0.06
Cc1cc(N)c2cc(Nc3nc(Nc4ccc5nc(C)cc(N(C)C)c5c4)nc(Nc4ccccc4Cl)n3)ccc2n1 [Example 3]	2.1
Cc1cc(N)c2cc(Nc3nc(Nc4ccc(N5CCNCC5)cc4)nc(Nc4ccc5nc(C)cc(N)c5c4)n3)ccc2n1 [Example 15]	0.19
Cc1cc(N)c2cc(Nc3nc(Nc4ccc5nc(C)cc(N)c5c4)nc(NC4CN5CCC4CC5)n3)ccc2n1 (centres unmarked) [Example 17, 2,4-bis(4-amino-2-methylquinolin-6-yl)amino-6-(quinuclidin-3-yl)amino-[1,3,5]triazine]	0.1
Cc1cc(N(C)C)c2cc(Nc3nc(Nc4ccncc4)nc(Nc4ccc5nc(C)cc(N(C)C)c5c4)n3)ccc2n1 [Example 18]	1.2
Cc1cc(N(C)C)c2cc(Nc3nc(Nc4ccc5nc(C)cc(N(C)C)c5c4)nc(C4CCN(C)CC4)n3)ccc2n1 [Example 19, 2,4-bis(4-dimethylamino-2-methylquinolin-6-yl)amino-6-(1-methylpiperidin-4-yl)-[1,3,5]triazine]	0.53
Cc1cc(N(C)C)c2cc(Nc3nc(Nc4ccc5nc(C)cc(N(C)C)c5c4)nc(N4CCN(C)CC4)n3)ccc2n1 [Example 20, 2,4-bis(4-dimethylamino-2-methylquinolin-6-yl)amino-6-(4-methylpiperazin-1-yl)-[1,3,5]triazine]	0.44
Cc1cc(N(C)C)c2cc(Nc3nc(NCc4ccncc4)nc(Nc4ccc5nc(C)cc(N(C)C)c5c4)n3)ccc2n1 [Example 27, 2,4-bis(4-dimethylamino-2-methylquinolin-6-yl)amino-6-(pyridin-4-yl)methylamino-[1,3,5]triazine]	0.6
CCN(CCNc1nc(Nc2ccc3nc(C)cc(N(C)C)c3c2)nc(Nc2ccc3nc(C)cc(N(C)C)c3c2)n1)c1cccc(C)c1 [Example 28]	0.9
Cc1cc(N)c2cc(Nc3nc(Nc4ccc5nc(C)cc(N)c5c4)nc(NC4CCN(Cc5ccccc5)C4)n3)ccc2n1 (centres unmarked) [Example 41]	0.36
Cc1cc(N)c2cc(Nc3nc(Nc4ccc5nc(C)cc(N)c5c4)nc(N4CCN(C5CCCC5)CC4)n3)ccc2n1 [Example 43]	0.18
Cc1cc(N)c2cc(Nc3nc(NCc4ccc([N+](C)(C)C)cc4)nc(Nc4ccc5nc(C)cc(N)c5c4)n3)ccc2n1 [Example 60]	3
Cc1cc(N)c2cc(Nc3nc(Nc4ccc5nc(C)cc(N)c5c4)nc(N4CCN(C(=O)c5ccco5)CC4)n3)ccc2n1 [Example 68]	0.3
Cc1cc(N)c2cc(Nc3nc(Nc4ccc5nc(C)cc(N)c5c4)nc(N4CCN(C5CCCCCCC5)CC4)n3)ccc2n1 [Example 77]	0.48
Cc1cc(N)c2cc(Nc3nc(Nc4ccc5nc(C)cc(N)c5c4)nc(N4CCCC4c4cccnc4)n3)ccc2n1 (centres unmarked) [Example 86]	0.2
Cc1cc(N)c2cc(Nc3nc(Nc4ccc5nc(C)cc(N)c5c4)nc(N(Cc4ccccc4)C4CN5CCC4CC5)n3)ccc2n1 (centres unmarked) [Example 92]	0.43
Cc1cc(N)c2cc(Nc3nc(Nc4ccc5nc(C)cc(N)c5c4)nc(NC4CCN(Cc5ccccc5)CC4)n3)ccc2n1 [Example 93]	0.37
Cc1cc(N)c2cc(Nc3nc(Nc4ccc5nc(C)cc(N)c5c4)nc(Oc4ccccc4Cl)n3)ccc2n1 [Example 103]	0.28
COc1cccc(Oc2nc(Nc3ccc4nc(C)cc(N)c4c3)nc(Nc3ccc4nc(C)cc(N)c4c3)n2)c1 [Example 104]	1.2
Cc1cc(N)c2cc(Nc3nc(Nc4ccc5nc(C)cc(N)c5c4)nc(OCCN(C)Cc4ccccc4)n3)ccc2n1 [Example 105]	0.24
Cc1cc(N(C)C)c2cc(Nc3nc(Nc4ccc5nc(C)cc(N(C)C)c5c4)nc(Oc4ccncc4)n3)ccc2n1 [Example 115, 2,4-bis(4-dimethylamino-2-methylquinolin-6-yl)amino-6-(pyridin-4-yl)oxy-[1,3,5]triazine]	0.5

SMILES	IC50 [µM]
Cc1cc(N)c2cc(Nc3nc(Nc4ccc5nc(C)cc(N)c5c4)nc(Sc4ccccc4Cl)n3)ccc2n1 [Example 118]	1.4
Cc1cc(N)c2cc(Nc3nc(Nc4ccc5nc(C)cc(N)c5c4)nc(Sc4ccccn4)n3)ccc2n1 [Example 120]	0.38
COc1ccc(CSc2nc(Nc3ccc4nc(C)cc(N)c4c3)nc(Nc3ccc4nc(C)cc(N)c4c3)n2)cc1 [Example 124]	0.9
Cc1cc(N)c2cc(Nc3nc(Nc4ccc5nc(C)cc(N)c5c4)nc(Sc4ncccn4)n3)ccc2n1 [Example 126]	0.67
Cc1cc(C)nc(Sc2nc(Nc3ccc4nc(C)cc(N)c4c3)nc(Nc3ccc4nc(C)cc(N)c4c3)n2)n1 [Example 127]	0.84
Cc1cc(N)c2cc(Nc3nc(Nc4ccc5nc(C)cc(N)c5c4)nc(Sc4ccc5ccccc5n4)n3)ccc2n1 [Example 128, 2,4-bis(4-amino-2-methylquinolin-6-yl)amino-6-(quinolin-2-yl)thio-[1,3,5]triazine]	0.39
Cc1cc(N(C)C)c2cc(Nc3nc(Nc4ccc5nc(C)cc(N(C)C)c5c4)nc(N4CCCN(C)CC4)n3)ccc2n1 [Example 135, 2,4-bis(4-dimethylamino-2-methylquinolin-6-yl)amino-6-(1-methylhomopiperazin-4-yl)-[1,3,5]triazine]	0.4
Cc1cc(N(C)C)c2cc(Nc3nc(Nc4ccc5nc(C)cc(N(C)C)c5c4)nc(N4CCN(CCCN(C)C)CC4)n3)ccc2n1 [Example 136, 2,4-bis(4-dimethylamino-2-methylquinolin-6-yl)amino-6-[1-(3-dimethylaminopropyl)piperazin-4-yl]-[1,3,5]triazine]	0.12
CCCN(CCC)CCN1CCN(c2nc(Nc3ccc4nc(C)cc(N(C)C)c4c3)nc(Nc3ccc4nc(C)cc(N(C)C)c4c3)n2)CC1 [Example 137, 2,4-bis(4-dimethylamino-2-methylquinolin-6-yl)amino-6-[1-(2-dipropylaminoethyl)piperazin-4-yl]-[1,3,5]triazine]	1
Cc1cc(N(C)C)c2cc(Nc3nc(Nc4ccc5nc(C)cc(N(C)C)c5c4)nc(N(C)C4CCN(C)CC4)n3)ccc2n1 [Example 138, 2,4-bis(4-dimethylamino-2-methylquinolin-6-yl)amino-6-[N-(1-methylpiperidin-4-yl)-N-methylamino]-[1,3,5]triazine]	0.5
Cc1cc(N(C)C)c2cc(Nc3nc(Nc4ccc5nc(C)cc(N(C)C)c5c4)nc(N4CCCN(CCCN5CCCC5)CC4)n3)ccc2n1 [Example 139]	0.6
Cc1cc(N(C)C)c2cc(Nc3nc(NCCN4CCN(Cc5ccccc5)CC4)nc(Nc4ccc5nc(C)cc(N(C)C)c5c4)n3)ccc2n1 [Example 140]	1
Cc1cc(N(C)C)c2cc(Nc3nc(Nc4ccc5nc(C)cc(N(C)C)c5c4)nc(N4CCN(CCOCCO)CC4)n3)ccc2n1 [Example 141, 2,4-bis(4-dimethylamino-2-methylquinolin-6-yl)amino-6-{[1-2-(2-hydroxyethyl)oxyethyl]piperazin-4-yl}-[1,3,5]triazine]	0.9
Cc1cc(N(C)C)c2cc(Nc3nc(NCC[N+](C)(C)C)nc(Nc4ccc5nc(C)cc(N(C)C)c5c4)n3)ccc2n1 [Example 142]	1
Cc1cc(N(C)C)c2cc(Nc3nc(Nc4ccc5nc(C)cc(N(C)C)c5c4)nc(N4CCN(C5CCCC5)CC4)n3)ccc2n1 [Example 143]	0.4
Cc1cc(N(C)C)c2cc(Nc3nc(Nc4ccc5nc(C)cc(N(C)C)c5c4)nc(N4CCN(c5ccncc5)CC4)n3)ccc2n1 [Example 144, 2,4-bis(4-dimethylamino-2-methylquinolin-6-yl)amino-6-[1-(pyridin-4-yl)piperazin-4-yl]-[1,3,5]triazine]	0.4
Cc1cc(N(C)C)c2cc(Nc3nc(NCc4ccncc4)nc(Nc4ccc5nc(C)cc(N(C)C)c5c4)n3)ccc2n1 [Example 145]	1
CCN(CCN(C)C)c1nc(Nc2ccc3nc(C)cc(N(C)C)c3c2)nc(Nc2ccc3nc(C)cc(N(C)C)c3c2)n1 [Example 146]	0.6
CC1=NCCN1c1nc(Nc2ccc3nc(C)cc(N(C)C)c3c2)nc(Nc2ccc3nc(C)cc(N(C)C)c3c2)n1 [Example 148]	1.5
Cc1cc(N(C)C)c2cc(Nc3nc(Nc4ccc5nc(C)cc(N(C)C)c5c4)nc(N4CCC[C@H]4CN4CCCC4)n3)ccc2n1 [Example 149, 2,4-bis(4-dimethylamino-2-methylquinolin-6-yl)amino-6-[2(S)-(pyrrolidin-1-yl)methylpyrrolidin-1-yl]-[1,3,5]triazine]	2.5
CC(=O)NCCNc1nc(Nc2ccc3nc(C)cc(N(C)C)c3c2)nc(Nc2ccc3nc(C)cc(N(C)C)c3c2)n1 [Example 150]	2.5

Test system: not given
Assay: not given
Details: not given

SMILES	melting point [°C]
Cc1cc(N(C)C)c2cc(Nc3nc(Nc4ccc5nc(C)cc(N(C)C)c5c4)nc(N4CCN(C)CC4)n3)ccc2n1 [Example 20, 2,4-bis(4-dimethylamino-2-methylquinolin-6-yl)amino-6-(4-methylpiperazin-1-yl)-[1,3,5]triazine]	256 to 260
